Measurements as given in the supplement of paper PMC11061612.

Columns and labels:
Assay in all cases: combination Emax (second highest fraction inhibited in the dose matrix, 72 h); higher = more inhibition; extreme values may be limits of the assay
[1] = tested on: NCI-H209 (Small Cell Lung Carcinoma)
Procedure, shortened: (§1)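 Cell lines in DMEM/F12 or RPMI with 10% FBS were plated in 1536-well plates, held 24 hours at 37°C, 5% CO2, then given two-drug dose matrices for 72 hours (DMSO typically 0.2%). Viability was read by CellTiter-Glo 2.0 luminescence and scaled as inhibition from 0 (vehicle wells) to 1 (blank wells). Combination Emax is the second-highest inhibition in the matrix; Bliss excess is observed combination effect minus expected EA + EB − EA·EB, EA and EB being single-agent effects.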

[2] = tested on: NCI-H524 (Small Cell Lung Carcinoma)
Procedure, shortened: as §1

GAMG (Glioblastoma) = tested on: GAMG (Glioblastoma)
Procedure, shortened: as §1

KS-1 (Glioblastoma) = tested on: KS-1 (Glioblastoma)
Procedure, shortened: as §1

BPH-1 (Non-Cancerous) = tested on: BPH-1 (Non-Cancerous)
Procedure, shortened: as §1

[3] = tested on: LNZTA3WT4 (Low Grade Glioma)
Procedure, shortened: as §1

[4] = tested on: SNU-449 (Hepatocellular Carcinoma)
Procedure, shortened: as §1

[5] = tested on: OE21 (Esophageal Squamous Cell Carcinoma)
Procedure, shortened: as §1

[6] = tested on: LS-123 (Colorectal Carcinoma)
Procedure, shortened: as §1

BE2-M17 (Neuroblastoma) = tested on: BE2-M17 (Neuroblastoma)
Procedure, shortened: as §1

[7] = tested on: TGBC1TKB (Biliary Tract Carcinoma)
Procedure, shortened: as §1

[8] = tested on: OV-56 (Ovarian Carcinoma)
Procedure, shortened: as §1

A673 (Ewing's Sarcoma) = tested on: A673 (Ewing's Sarcoma)
Procedure, shortened: as §1

[9] = tested on: BE-13 (T-Lymphoblastic Leukemia)
Procedure, shortened: as §1

[10] = tested on: CAL-33 (Oral Cavity Carcinoma)
Procedure, shortened: as §1

[11] = tested on: SAS (Oral Cavity Carcinoma)
Procedure, shortened: as §1

[12] = tested on: LCLC-97TM1 (Non-Small Cell Lung Carcinoma)
Procedure, shortened: as §1

CAL-72 (Osteosarcoma) = tested on: CAL-72 (Osteosarcoma)
Procedure, shortened: as §1

[13] = tested on: HuH-7 (Hepatocellular Carcinoma)
Procedure, shortened: as §1

[14] = tested on: NUGC-4 (Gastric Carcinoma)
Procedure, shortened: as §1

| Compound | combination Emax [1] | combination Emax [2] | combination Emax (GAMG (Glioblastoma)) | combination Emax (KS-1 (Glioblastoma)) | combination Emax (BPH-1 (Non-Cancerous)) | combination Emax [3] | combination Emax [4] | combination Emax [5] | combination Emax [6] | combination Emax (BE2-M17 (Neuroblastoma)) | combination Emax [7] | combination Emax [8] | combination Emax (A673 (Ewing's Sarcoma)) | combination Emax [9] | combination Emax [10] | combination Emax [11] | combination Emax [12] | combination Emax (CAL-72 (Osteosarcoma)) | combination Emax [13] | combination Emax [14] |
| --- | --- | --- | --- | --- | --- | --- | --- | --- | --- | --- | --- | --- | --- | --- | --- | --- | --- | --- | --- | --- |
| COc1cc2ncnc(Nc3ccc(F)c(Cl)c3)c2cc1OCCCN1CCOCC1 [Gefitinib] + CC(C)n1c(=O)n(C)c2cnc3cc(F)c(-c4ccc(OCCCN5CCCCC5)nc4)cc3c21 [AZD1390] (first compound max 10 µM, 7x7, partner max 0.3 µM) | 0.384 | 0.139 | 0.106 | 0.0732 | 0.556 | 0.129 | 0.249 | 0.499 | 0.226 | 0.147 | 0.263 | 0.0799 | 0.162 | 0.266 | 0.42 | 0.401 | 0.0902 | 0.109 | 0.114 | 0.481 |
| COc1cc2c(cc1OCCCCCOc1cc3c(cc1OC)C(=O)N1C=C(C)C[C@H]1C=N3)N=C[C@@H]1CC(C)=CN1C2=O [SG3199] + O=C(c1cc(Cc2n[nH]c(=O)c3ccccc23)ccc1F)N1CCN(C(=O)C2CC2)CC1 [Olaparib] (first compound max 0.001 µM, 7x7, partner max 10 µM) | 0.913 | 0.196 | 0.104 | 0.127 | 0.354 | 0.0132 | 0.0573 | 0.133 | 0.187 | 0.299 | 0.0857 | 0.131 | 0.563 | 0.283 | 0.143 | 0.164 | 0.12 | 0.23 | 0.12 | 0.219 |
| C[C@@H](c1ccc2nccn2c1)n1nnc2ncc(-c3cnn(C)c3)nc21 [Savolitinib] + CC1(C)CCC(CN2CCN(c3ccc(C(=O)NS(=O)(=O)c4ccc(NCC5CCOCC5)c([N+](=O)[O-])c4)c(Oc4cnc5[nH]ccc5c4)c3)CC2)=C(c2ccc(Cl)cc2)C1 [Venetoclax] (first compound max 1 µM, 7x7, partner max 1 µM) | 0.373 | 0.13 | 0.202 | 0.152 | 0.136 | 0.162 | 0.157 | 0.0581 | 0.148 | 0.0964 | 0.144 | 0.158 | 0.309 | 0.196 | 0.154 | 0.138 | 0.0631 | 0.181 | 0.15 | 0.167 |
| C[C@@H](c1ccc2nccn2c1)n1nnc2ncc(-c3cnn(C)c3)nc21 [Savolitinib] + Cc1c2c(nn1C)CSCc1cc(n(C)n1)CSc1cc(c3ccccc3c1)OCCCc1c(C(=O)O)n(C)c3c-2c(Cl)ccc13 [AZD5991] (first compound max 1 µM, 7x7, partner max 1 µM) | 0.323 | 0.351 | 0.167 | 0.132 | 0.199 | 0.222 | 0.154 | 0.355 | 0.211 | 0.129 | 0.159 | 0.151 | 0.302 | 0.383 | 0.181 | 0.151 | 0.147 | 0.189 | 0.207 | 0.221 |
